Assay: xn = mol fraction of the nth substance listed
Settings: for speed of sound: 100 kPa, Frequency=3 MHz, Sing-around technique in a fixed-path interferometer; for speed of sound / viscosity / mass density: Liquid; for viscosity / mass density: 102 kPa; for viscosity: Concentric cylinders viscometry; for mass density: Vibrating tube method; for surface tension liquid-gas: 294.5 K, Pendant drop shape

CCCCc1ccccc1 [butylbenzene] + CCCCCCCCCC
Settings	mass density [kg/m3]	speed of sound [m/s]	viscosity [mPa·s]
293.15 K, x1 = 0.1055	740.9	1259.2	0.917
293.15 K, x1 = 0.2096	752.3	1266.3	0.917
293.15 K, x1 = 0.3124	764.12	1273.8	0.921
293.15 K, x1 = 0.4141	776.38	1282.1	0.928
293.15 K, x1 = 0.5145	789.08	1291.3	0.94
293.15 K, x1 = 0.614	802.32	1301.1	0.957
293.15 K, x1 = 0.712	816.03	1312.2	0.981
293.15 K, x1 = 0.8094	830.38	1324.5	1
293.15 K, x1 = 0.9051	845.04	1338.2	1.03
293.15 K, x1 = 1	860.51	1353.7	1.05
303.15 K, x1 = 0.1055	733.32	1220.2	0.792
303.15 K, x1 = 0.2096	744.67	1227.4	0.794
303.15 K, x1 = 0.3124	756.43	1235	0.798
303.15 K, x1 = 0.4141	768.66	1243.5	0.805
303.15 K, x1 = 0.5145	781.31	1252.5	0.816
303.15 K, x1 = 0.614	794.51	1262.6	0.83
303.15 K, x1 = 0.712	808.16	1273.7	0.849
303.15 K, x1 = 0.8094	822.46	1286	0.866
303.15 K, x1 = 0.9051	837.07	1299.4	0.891
303.15 K, x1 = 1	852.49	1314.9	0.91
313.15 K, x1 = 0.1055	725.64	1181.5	0.693
313.15 K, x1 = 0.2096	736.97	1188.9	0.696
313.15 K, x1 = 0.3124	748.7	1196.6	0.7
313.15 K, x1 = 0.4141	760.89	1205.2	0.707
313.15 K, x1 = 0.5145	773.5	1214.3	0.716
313.15 K, x1 = 0.614	786.65	1224.4	0.727
313.15 K, x1 = 0.712	800.26	1235.6	0.743
313.15 K, x1 = 0.8094	814.51	1247.9	0.76
313.15 K, x1 = 0.9051	829.07	1261.2	0.781
313.15 K, x1 = 1	844.43	1276.6	0.801
323.15 K, x1 = 0.1055	717.94	1143.3	0.616
323.15 K, x1 = 0.2096	729.23	1150.8	0.619
323.15 K, x1 = 0.3124	740.92	1158.7	0.624
323.15 K, x1 = 0.4141	753.07	1167.3	0.63
323.15 K, x1 = 0.5145	765.64	1176.6	0.639
323.15 K, x1 = 0.614	778.75	1186.7	0.649
323.15 K, x1 = 0.712	792.31	1197.9	0.661
323.15 K, x1 = 0.8094	806.52	1210.2	0.677
323.15 K, x1 = 0.9051	821.03	1223.5	0.695
323.15 K, x1 = 1	836.34	1238.7	0.713
333.15 K, x1 = 0.1055	710.17	1105.6	0.547
333.15 K, x1 = 0.2096	721.43	1113.2	0.549
333.15 K, x1 = 0.3124	733.08	1121.2	0.555
333.15 K, x1 = 0.4141	745.19	1129.9	0.56
333.15 K, x1 = 0.5145	757.73	1139.3	0.568
333.15 K, x1 = 0.614	770.8	1149.5	0.577
333.15 K, x1 = 0.712	784.32	1160.7	0.589
333.15 K, x1 = 0.8094	798.48	1173	0.602
333.15 K, x1 = 0.9051	812.95	1186.3	0.618
333.15 K, x1 = 1	828.21	1201.4	0.636
343.15 K, x1 = 0.1055	702.3	–	0.488
343.15 K, x1 = 0.2096	713.5	–	0.492
343.15 K, x1 = 0.3124	725.1	–	0.496
343.15 K, x1 = 0.4141	737.2	–	0.502
343.15 K, x1 = 0.5145	749.7	–	0.509
343.15 K, x1 = 0.614	762.7	–	0.518
343.15 K, x1 = 0.712	776.1	–	0.528
343.15 K, x1 = 0.8094	790.3	–	0.54
343.15 K, x1 = 0.9051	804.7	–	0.554
343.15 K, x1 = 1	819.9	–	0.571
353.15 K, x1 = 0.1055	694.4	–	0.439
353.15 K, x1 = 0.2096	705.6	–	0.443
353.15 K, x1 = 0.3124	717.1	–	0.447
353.15 K, x1 = 0.4141	729.2	–	0.453
353.15 K, x1 = 0.5145	741.7	–	0.46
353.15 K, x1 = 0.614	754.6	–	0.467
353.15 K, x1 = 0.712	768	–	0.477
353.15 K, x1 = 0.8094	782.1	–	0.488
353.15 K, x1 = 0.9051	796.5	–	0.5
353.15 K, x1 = 1	811.7	–	0.516
363.15 K, x1 = 0.1055	686.4	–	0.399
363.15 K, x1 = 0.2096	697.5	–	0.402
363.15 K, x1 = 0.3124	709.1	–	0.407
363.15 K, x1 = 0.4141	721.1	–	0.412
363.15 K, x1 = 0.5145	733.5	–	0.419
363.15 K, x1 = 0.614	746.4	–	0.426
363.15 K, x1 = 0.712	759.9	–	0.434
363.15 K, x1 = 0.8094	773.9	–	0.444
363.15 K, x1 = 0.9051	788.3	–	0.456
363.15 K, x1 = 1	803.4	–	0.469
373.15 K, x1 = 0.1055	678.2	–	0.365
373.15 K, x1 = 0.2096	689.3	–	0.369
373.15 K, x1 = 0.3124	700.9	–	0.373
373.15 K, x1 = 0.4141	712.8	–	0.378
373.15 K, x1 = 0.5145	725.3	–	0.384
373.15 K, x1 = 0.614	738.2	–	0.391
373.15 K, x1 = 0.712	751.6	–	0.399
373.15 K, x1 = 0.8094	765.6	–	0.408
373.15 K, x1 = 0.9051	779.9	–	0.419
373.15 K, x1 = 1	795	–	0.43

Settings	surface tension liquid-gas [mN/m]
x1 = 0.1055	23.9
x1 = 0.2096	24.3
x1 = 0.3124	24.6
x1 = 0.4141	24.9
x1 = 0.5145	25.4
x1 = 0.614	25.8
x1 = 0.712	26.5
x1 = 0.8094	26.7
x1 = 0.9051	27.9

Source: the NIST ThermoML archive (doi:10.1021/acs.jced.6b00542)
